In patent publication US8017791B2, “Tri-substituted 2-benzhydryl-5-benzylamino-tetrahydro-pyran-4-ol and 6-benzhydryl-4-benzylamino-tetrahydro-pyran-3-ol analogues, and novel, 3,6-disubstituted pyran derivatives” (Wayne State University, priority 2003, dated 2011):
Where two headings read alike, the source gives them in different places.

Key:
DAT [1] = target: T1, DAT (Rattus norvegicus, UniProt P23977); details: Table 2; values marked b: See reference # 22; read-out: DAT binding, IC50, [3H]Win 35,428; cited from earlier work
T1 construct: rat striatum was the source for DAT, and cerebral cortex for SERT and NET; from tissue; P2 synaptosomal fraction for uptake

DAT [2] = target: T1, DAT; assay: Inhibition of [3H]DA uptake by DAT into rat striatal synaptosomes; type: biochemical
SERT [3] = target: T2, SERT (Rattus norvegicus, UniProt P31652); assay: Inhibition of [3H]citalopram binding to SERT; details: for SERT binding/DAT binding: Table 3, selectivity ratio of IC50 values
T2 construct: rat striatum was the source for DAT, and cerebral cortex for SERT and NET; from tissue; host or cells: rat cerebral cortex
Description: (§1) Biology. […] Briefly, rat striatum was the source for DAT, and cerebral cortex for SERT and NET. […] Test compounds were dissolved in dimethyl sulfoxide (DMSO) and diluted out in 10% (v/v) DMSO. […] At least five triplicate concentrations of each test compound were studied, spaced evenly around the IC50 value. For DAT uptake assays, uptake of 50 nM [^3H]DA into rat striatal synaptosomes was measured exactly as described by us previously. Briefly, rat striatal P2 membrane fractions were incubated with test compounds for 8 min followed by the additional presence of [^3H]DA for 4 min at 25?. […] Construction of inhibition curves and dissolvement of test compounds were as described above.

NET [4] = target: NET (Rattus norvegicus, UniProt Q9WTR4); assay: Inhibition of [3H]nisoxetine binding to NET
Description: as §1

NET [5] = assay: Inhibition of [3H]nisoxetine binding to NET; design: species or system rat; details: Table 3; selectivity ratio of IC50 values
Description: as §1

DAT [6] = target: T1, DAT; assay: Inhibition of [3H]WIN 35,428 binding to DAT
NET (Rattus norvegicus) = target: T3, NET (Rattus norvegicus); assay: NET uptake inhibition, [3H]NE; type: biochemical; details: Table 4; rat brain
T3 construct: from tissue

NET [7] = target: T4, NET (Rattus norvegicus, UniProt Q63380); assay: NET uptake inhibition, [3H]NE; type: biochemical; details: in vitro data, Table 4
T4 construct: from tissue

SERT [8] = target: T2, SERT; assay: SERT uptake inhibition, [3H]5-HT; type: biochemical
[9] = Table 2, average ± SEM, read-out: SERT binding, IC50 [3H]citalopram
[10] = Table 2, average ± SEM, read-out: NET binding, IC50 [3H]nisoxetine

T2 sequence (P31652 whole entry): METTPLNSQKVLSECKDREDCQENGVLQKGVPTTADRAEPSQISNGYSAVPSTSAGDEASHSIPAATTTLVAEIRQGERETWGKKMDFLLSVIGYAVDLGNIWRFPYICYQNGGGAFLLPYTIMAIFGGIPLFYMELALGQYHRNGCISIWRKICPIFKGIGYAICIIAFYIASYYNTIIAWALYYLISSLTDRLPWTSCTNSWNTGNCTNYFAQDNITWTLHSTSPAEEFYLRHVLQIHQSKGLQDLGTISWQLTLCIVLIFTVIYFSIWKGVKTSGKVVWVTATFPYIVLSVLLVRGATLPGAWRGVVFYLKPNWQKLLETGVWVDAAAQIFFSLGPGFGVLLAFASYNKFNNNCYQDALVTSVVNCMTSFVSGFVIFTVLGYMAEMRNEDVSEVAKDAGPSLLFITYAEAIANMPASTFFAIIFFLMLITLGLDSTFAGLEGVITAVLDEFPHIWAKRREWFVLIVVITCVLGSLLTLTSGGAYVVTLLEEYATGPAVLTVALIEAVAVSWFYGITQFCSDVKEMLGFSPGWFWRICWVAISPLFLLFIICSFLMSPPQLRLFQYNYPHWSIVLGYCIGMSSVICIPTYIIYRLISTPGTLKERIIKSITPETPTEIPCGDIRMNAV
T1 sequence (P23977 whole entry): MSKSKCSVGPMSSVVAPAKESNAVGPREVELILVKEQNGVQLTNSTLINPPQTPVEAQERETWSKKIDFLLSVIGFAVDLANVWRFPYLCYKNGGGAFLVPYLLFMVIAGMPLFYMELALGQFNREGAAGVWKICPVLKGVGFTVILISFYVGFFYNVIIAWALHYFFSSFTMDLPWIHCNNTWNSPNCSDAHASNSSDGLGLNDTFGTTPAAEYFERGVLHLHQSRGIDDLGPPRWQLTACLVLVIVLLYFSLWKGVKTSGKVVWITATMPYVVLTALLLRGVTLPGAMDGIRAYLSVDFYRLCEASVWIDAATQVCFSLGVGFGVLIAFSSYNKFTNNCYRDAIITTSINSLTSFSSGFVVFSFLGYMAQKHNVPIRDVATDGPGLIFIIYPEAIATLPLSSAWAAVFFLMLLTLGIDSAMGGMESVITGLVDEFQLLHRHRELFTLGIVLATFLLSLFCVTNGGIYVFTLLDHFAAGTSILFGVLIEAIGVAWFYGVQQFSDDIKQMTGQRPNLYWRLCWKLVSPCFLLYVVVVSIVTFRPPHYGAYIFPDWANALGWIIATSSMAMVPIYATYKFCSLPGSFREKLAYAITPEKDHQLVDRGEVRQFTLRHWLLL
T4 sequence (Q63380 1-617): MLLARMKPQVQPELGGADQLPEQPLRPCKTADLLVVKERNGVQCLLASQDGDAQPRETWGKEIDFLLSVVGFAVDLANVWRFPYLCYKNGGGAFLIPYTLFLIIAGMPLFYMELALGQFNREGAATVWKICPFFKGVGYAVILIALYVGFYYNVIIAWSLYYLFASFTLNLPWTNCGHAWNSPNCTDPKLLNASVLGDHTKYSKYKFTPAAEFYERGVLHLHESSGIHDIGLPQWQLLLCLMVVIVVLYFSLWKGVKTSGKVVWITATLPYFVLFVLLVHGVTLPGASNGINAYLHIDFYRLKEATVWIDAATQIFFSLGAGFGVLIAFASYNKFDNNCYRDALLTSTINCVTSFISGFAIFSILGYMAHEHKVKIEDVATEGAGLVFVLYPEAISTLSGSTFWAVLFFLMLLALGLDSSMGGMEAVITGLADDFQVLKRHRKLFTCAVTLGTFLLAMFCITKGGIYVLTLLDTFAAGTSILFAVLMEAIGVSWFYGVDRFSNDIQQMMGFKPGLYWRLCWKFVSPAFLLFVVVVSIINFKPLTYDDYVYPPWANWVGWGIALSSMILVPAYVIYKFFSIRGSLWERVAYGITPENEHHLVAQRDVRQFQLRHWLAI
T3 sequence (Q63380 1-617): as above

IC50 (DAT [2]; Table 2, average ± SEM, read-out: DAT uptake, IC50 [3H]DA) | [3H]DA uptake/DAT binding (DAT [2]; Table 3, ratio of IC50 values) | IC50 (SERT [3]; [9]) | SERT binding/DAT binding (SERT [3]) | IC50 (NET [4]; [10]) | NET binding/DAT binding (NET [5]) | activity at DAT, in words (DAT [6]) | IC50 (DAT [6]; Table 1, rat striatum, read-out: Inhibition of [3H]Win 35,428 binding to DAT IC50) | IC50 (SERT [3]; Table 1, read-out: Inhibition of [3H]citalopram binding to SERT, IC50) | IC50 (NET [4]; Table 1, read-out: Inhibition of [3H]nisoxetine binding to NET, IC50) | SMILES | IC50 (DAT [1]) | IC50 (DAT [6]) | IC50 (NET (Rattus norvegicus)) | selectivity for the NET (NRI profile), in words (NET [7]) | selectivity for the NET (NRI profile), in words (NET [7]; listed as (−)29b) | IC50 (SERT [8]) | IC50 (DAT [2])
0.146 ± 0.036 µM | 0.96 | 1.86 µM | 11.4 | 0.232 ± 0.046 µM | 1.4 | – | – | – | – | Fc1ccc(CN[C@H]2CC[C@@H](C(c3ccccc3)c3ccccc3)OC2)cc1 (relative stereo) [Compound 16b, Cis-(6-benzhydryl-tetrahydropyran-3-yl)-(4-fluoro-benzyl)-amine] | 0.163 µM | – | – | – | – | – | –
– | – | – | – | – | – | – | – | – | – | O[C@@H]1C[C@@H](C(c2ccccc2)c2ccccc2)OC[C@H]1NCc1ccc(F)cc1 [(−)-29b, (2S,4R,5R)-2-benzhydryl-5-(4-fluoro-benzylamino)-tetrahydro-pyran-4-ol] | – | 0.308 ± 0.025 µM | 0.0133 ± 0.001 µM | selective blockers for NET | more selective for the NET | 0.676 ± 0.033 µM | 0.169 ± 0.02 µM
– | – | 8.41 µM | 26.9 | 12.7 µM | 40.6 | much weaker at DAT | 0.313 ± 0.071 µM | 8.41 µM | 12.7 µM | Fc1ccc(CN[C@H]2CC[C@H](C(c3ccccc3)c3ccccc3)OC2)cc1 (relative stereo) [Compound 16a, trans-2-diphenylmethyl-5-(4-fluorobenzylamino)-tetrahydropyran] | 0.313 µM | – | – | – | – | – | –
